Measurements: patent publication US7943186B2, “Hydroxycitric acid compositions, pharmaceutical and dietary supplements and food products made therefrom, and methods for their use in reducing body weight” (Interhealth Nutraceuticals, Inc., priority 1997, dated 2011)

Legend:
rats = details: cited from earlier work
fatty acid synthesis = details: biological systems, profused organs and intact mammals; cited from earlier work
Solubility in water = format: physicochemical
Hygroscopicity = format: physicochemical

solubility in water (in words) (Solubility in water)	hygroscopicity (Hygroscopicity)	SMILES	body weight (rats)	lipid accumulation (rats)	inhibition of fatty acid synthesis (fatty acid synthesis)
		O=C(O)CC(O)(C(=O)O)C(O)C(=O)O (stereo not shown) [hydroxycitric acid]	significantly reduce the body weight	lower lipid accumulation	substantially inhibit fatty acid synthesis
moderately soluble	minimal hygroscopicity	O=C([O-])C[C@@](O)(C(=O)[O-])[C@H](O)C(=O)[O-].O=C([O-])C[C@@](O)(C(=O)[O-])[C@H](O)C(=O)[O-].[Ca+2].[Ca+2].[Ca+2] [pure calcium salt]			
highly soluble	high hygroscopicity	O=C([O-])C[C@@](O)(C(=O)[O-])[C@H](O)C(=O)[O-].[K+].[K+].[K+] [pure potassium salt]			
